Results as given in patent US20210316003A1 (Immunomedics, Inc., priority 2020, published 2021).
“And” between values parts separate entries of the source, which are not always exact repeats. Identical values can stand only once. “Also recorded” adds a separate entry of the source.

What was measured:
[1] = tested on: TNBC xenografts; details: nude mice bearing TNBC xenografts, independent of BRCA1/2 mutation status; cited from earlier work
[2] = tested on: patients with mSCLC; details: 53 mSCLC patients (Gray et al., 2017); cited from earlier work
[3] = tested on: patients with mSCLC; experiment: Antibody responses to sacituzumab govitecan, the IgG antibody and SN-38 in serum (ELISA), mSCLC; format: in vivo, human; details: treatment up to 22 months, up to 63 doses
Description: Positivity required at least 10% of the tumor cells to be stained, with an intensity scored as 1+(weak), 2+(moderate), and 3+(strong). […] Assay sensitivity is 50 ng/mL for the ADC and the IgG, and 170 ng/mL for anti-SN-38 antibody.

[4] = tested on: patients with metastatic urothelial cancer (mUC); experiment: Phase I/II trial IMMU-132-01 (NCT01631552), mUC cohort: efficacy by RECIST 1.1; format: in vivo, human; details: for ORR (objective response rate): 10 mg/kg days 1 and 8 of 21-day cycles
Description: Endpoints included safety, investigator-evaluated objective response rate (ORR per RECIST 1.1), clinical benefit rate, duration of response (DOR), progression-free survival (PFS), and overall survival (OS). Sequencing analysis of differentially mutated and expressed genes and pathways was performed in subsets of tumors from responders and non-responders.
All patients had metastatic disease measurable by Response Evaluation Criteria in Solid Tumors, version 1.1 (RECIST 1.1) at the time of enrollment. Patients were required to have an Eastern Cooperative Oncology Group (ECOG) performance status of 0 to 1 with expected survival ≥6 months and adequate hepatic, renal, and hematologic function. […] Patients with stable brain metastases could be included only if they were ≥2 weeks beyond high-dose steroid treatment. Pre-selection of patients based on tumor Trop-2 expression was not required.
Hematopoietic growth factors or blood transfusions were allowed at the investigator's discretion, but not prior to the first dose. Other supportive care (antiemetics, anti-diarrheal medications, or bone-stabilizing agents) were allowed as medically needed.
Staging CT/magnetic resonance imaging (MRI) scans were obtained at baseline and at 8-week intervals from the start of treatment until progression requiring treatment discontinuation. […] Subsequent scans were done at 8-week intervals after the confirmatory scan. Patients with evidence of clinical benefit were permitted to receive treatment following disease progression. Response was assessed by investigators using RECIST, version 1.1. Efficacy endpoints included objective response rate (ORR), time to response, duration of response (DOR), clinical benefit rate (CBR; defined as CR, PR, or stable disease ≥6 months), progression-free survival (PFS), and overall survival (OS).
The data cut-off date for this analysis was Sep. 1, 2018. ORR and CBR were calculated with 95% confidence intervals estimated by the Clopper-Pearson method (Clopper & Pearson, 1934, Biometrika 26:404-13). PFS, OS, and time-to-event endpoints were analyzed by the Kaplan-Meier method, with medians and corresponding 95% confidence intervals determined by the Brookmeyer and Crowley method with log-log transformation. Descriptive statistics were used to characterize AEs. Fischer's exact test was applied to a matrix of pathway-associated gene counts of mutated and wild type phenotypes between responders and non-responders to identify pathways enriched in either of the two response groups. P-values for single sample GSEA (ssGSEA) enrichment score differences between the responder and non-responder patient groups were obtained from the Mann-Whitney statistical test.

[5] = 10 mg/kg, N = 45, listed as Sacituzumab Govitecan

Question: What does the source list for sacituzumab govitecan?
Answer: Tumor growth in combination with olaparib, rucaparib and talazoparib [1]: Synthetic lethality and synergistic inhibition of tumor growth; Median OS [2]: 7.5 months; Median PFS [2]: 3.7 months; Median response duration [2]: 5.7 months; ORR [2]: 14%; Patients with tumor shrinkage from baseline [2]: Sixty; Immunogenicity: antibodies to sacituzumab govitecan, the hRS7 antibody, or SN-38 [3]: not immunogenic; also recorded: No neutralizing antibodies; ORR (objective response rate) ([4]; N = 45, 10 mg/kg): 31% and 31.1%; ORR (objective response rate) ([4]; N = 45, listed as Sacituzumab Govitecan, 10 mg/kg): 31.1%; ORR, prior CPI- and platinum-treated patients ([4]; 10 mg/kg, 4 of 15, 10 mg/kg): 27% and 26.7%; ORR, prior CPI-treated patients ([4]; 10 mg/kg, 4 of 17, 10 mg/kg): 24% and 23.5%; ORR, patients with liver metastases ([4]; 10 mg/kg, 5 of 15, 10 mg/kg): 33% and 33.3%; ORR, patients with any visceral involvement ([4]; 10 mg/kg, 9 of 33): 27.3%; Clinical benefit rate, No. of patients ([4]; 10 mg/kg, N = 45): 21; Median OS ([4]; 10 mg/kg, N = 45): 16.3 months; Median PFS ([4]; 10 mg/kg, N = 45): 7.3 months; ORR, No. of patients ([4]; 10 mg/kg, N = 45): 14; CR, % of patients ([4]; 10 mg/kg, N = 45, 10 mg/kg): (4.4) %; PD, % of patients ([4]; 10 mg/kg, N = 45, 10 mg/kg): (22.2) %; PR, % of patients ([4]; 10 mg/kg, N = 45, 10 mg/kg): (26.7) %; CR, % of patients [4, 5]: 4.4%; PD, % of patients [4, 5]: 22.2%; PR, % of patients [4, 5]: 26.7%; Median DOR (duration of response) ([4]; 10 mg/kg, responders n = 14): 12.9 months; Time to onset of response, median ([4]; 10 mg/kg, responders n = 14): 1.9 months; Time to onset of response, range ([4]; 10 mg/kg, responders n = 14): 1.7-7.4 months; Ongoing response of patients still on treatment at time of analysis ([4]; 3 patients, FIG. 1B): > 17 months and > 19 months and > 29 months; Responders with response duration of more than 12 months ([4]; 7 of 14 responders): 50%; Patients with a reduction of target lesions ([4]; 31 of 40 patients with post-baseline assessment): 77.5%
